Data from patent US20120028917A1, “Use Of N-(4-((3-(2-Amino-4-Pyrimidinyl)-2-Pyridinyl)Oxy)Phenyl)-4-(4-Methyl-2-Thienyl)-1-Phthalazinamine In The Treatment Of Antimitotic Agent Resistant Cancer” (Amgen Inc., priority 2009, published 2012).

Legend:
[1] = system: HCT 116_JH_p21+/+; assay: Antiproliferative assay (ArrayScan VTi); format: cell-based; conditions: Homo sapiens; HCT 116_JH_p21+/+ (Colon); 24 h treatment, then 48 h without compound
Experimental: Tumor cells were seeded in a Packard View 96-well plate in 100 μL of appropriate complete media at a density of 3000 or 5000 cells/well depending on the cell line growth kinetics (broadly defined as slow vs. fast). All dilutions were performed using Biomek FX workstation. The next day cells were treated with AMG 900 (11-point dose range 0.156 to 0.0003 μM) with a final DMSO concentration of 0.12% in media. After 24 hours, the media containing compound was removed and the cells were washed with complete media. The cells were then incubated in 100 μL of fresh complete media (without compound) for 48 hours. After 48 hours, the cells were fixed by adding 100 μL of fixation buffer to 100 μL of complete media. The cells were incubated at room temperature for 10 minutes. The fixation buffer was aspirated and the cells were then permeabilized in 100 μL wash buffer for 30 minutes at room temperature followed by the addition of 100 μL of DNA stain buffer and incubated at room temperature for 30 minutes in the dark. Next, the cells were washed with 100 μL of wash buffer and stored in 100 μL 1×PBS at 4 degrees Celsius until analysis. Cellular data was attained by scanning the 96-well plates on an ArrayScan VTi imaging system (Cellomics). Quantification of individual cell nuclear area and intensity was performed based on Hoechst 33342 DNA dye fluorescence. A threshold on the nuclear area based on the DMSO-treated control well was set to quantify the number of normal size nuclei from nuclear debris and polyploidy cells. This threshold value was applied to enumerate the number of normal nuclei in six image fields/well using a magnification of 10×. The dose-concentration curves and EC50 values were calculated using a 4-parameter equation.

[2] = system: MES-SA Dx5 xenograft; assay: Xenograft tumor growth inhibition (Example 3); format: in vivo, athymic nude mice
Experimental: (§1) To investigate whether AMG 900-induced suppression of aurora kinase activity inhibits cell proliferation, the antiproliferative efficacy of AMG 900 was evaluated in-vivo in multiple human cancer xenograft models, including breast, colon, leukemia, lung, pancreatic, and uterine cancer models, grown in athymic nude mice. Mice were administered AMG 900 orally at 3.75, 7.5, or 15 mg/kg BID for 2 consecutive days per week or 3 mg/kg BID everyday for the duration of the study beginning when tumors were established. The reagents, solutions, equipment, formulation of AMG 900, tumor volume measurements and calculations were generally as described in Example 4 below.
(§2) The effect of AMG 900 was tested on the multidrug resistant cell line MES-SA Dx5 grown in vivo as a tumor xenograft. Mice were administered AMG 900 orally at 15 mg/kg BID for 2 consecutive days per week or 3.0 mg/kg BID everyday for the duration of the study. Dosing was initiated when tumors were established (10 days after tumor implantation).
MES-SA Dx5, multi-drug resistant, cells (2×10^6) were injected subcutaneously in the right flank of female athymic nude mice. Tumors were measured twice per week. Treatment began on day 10 when the tumors were ˜100 mm^3. […] P-values correspond to statistical difference between groups treated with vehicle and AMG 900 determined by RMANOVA followed by Dunnett's post-hoc test. […]

[3] = system: HCT15 xenograft; assay: Xenograft tumor growth inhibition (Example 3); format: in vivo, athymic nude mice; conditions: HCT15, Colon; oral BID, best of intermittent or continuous dose schedule
Experimental: as §1, §2

[4] = system: NCI-H460-Taxol-r xenograft; assay: Xenograft tumor growth inhibition (Example 3); format: in vivo, athymic nude mice; conditions: Lung, oral BID, best of intermittent or continuous dose schedule
Experimental: as §1, §2

[5] = system: HL-60; assay: Multiparameter cell cycle DNA content assay (flow cytometry); format: cell-based; conditions: Homo sapiens; HL-60, Promyelocytic leukemia; 48 hours without compound withdrawal; read-out: EC50 (+4N DNA content endpoint)
Experimental: (§3) Tumor cells were seeded in a 300 μL deep 96-well plate in 150 μL of appropriate complete media at a density of 100,000 cells/well. The cells were treated with AMG 900 (10-point dose range 0.156 to 0.0003 μM) with a final DMSO concentration of 0.2% in media. Two hours prior to harvest time, the cells were pulsed with BrdU at the final concentration of 1:100 in media. After 48 hours, 100 μL of media was removed from each well with a multi-well pipetter. Then the cells were transferred to PCR tube strips in 200 μL of media. The cells were centrifuged at 2000 rpm at 18° C. for 4 minutes and the supernatant was aspirated. The cells were then fixed in 200 μL of ice cold 90% methanol and stored at −20° C. for at least 24 hours before antibody and DNA staining. Fixed cells were centrifuged at 2000 rpm for 4 minutes to remove 90% methanol. Cells were washed with 200 μL of wash buffer and then treated with 100 μL acid buffer at room temperature for 1 hour in the dark. Cells were washed twice with 200 μL wash buffer (until pH was 7.0, confirmed with pH paper). Cells were incubated with an anti-BrdU-Alexa 647 (3 μg/mL) and anti-Caspase 3-FITC (20 μ/well) antibody cocktail in wash buffer for 2 hours at room temperature in the dark. Stained cells were centrifuged and washed with 200 μL of wash buffer. Cells were counterstained with 200 μL of propidium iodide (PI) overnight at 4° C. in the dark. Data was acquired and analyzed by flow cytometer (LSRII). A threshold gate was applied according to DNA content, BrdU, and Caspase-3 positive/negative populations based on DMSO control and low/high drug-treated groups. The data was represented as a percentage of SubG1 DNA content, 4N+ DNA content, BrdU, and Caspase-3 cleavage positive populations. The concentration-response curves and EC50 values were calculated using a 4-parameter equation.

[6] = system: U266-B1; assay: as above; format: cell-based; conditions: Homo sapiens; U266-B1, Multiple Myeloma; 48 hours without compound withdrawal; read-out: EC50 (+4N DNA content endpoint)
Experimental: as §3

[7] = system: K562; assay: as above; format: cell-based; conditions: Homo sapiens; K562, Chronic myeloid leukemia; 48 hours without compound withdrawal; read-out: EC50 (+4N DNA content endpoint)
Experimental: as §3

[8] = system: MOLT-4; assay: as above; format: cell-based; conditions: Homo sapiens; MOLT-4, T cell leukemia; 48 hours without compound withdrawal; read-out: EC50 (+4N DNA content endpoint)
Experimental: as §3

[9] = system: Jurkat; assay: as above; format: cell-based; conditions: Homo sapiens, T cell leukemia, 48 hours without compound withdrawal, read-out: EC50 (+4N DNA content endpoint)
Experimental: as §3

In the case of `Cc1csc(-c2nnc(Nc3ccc(Oc4ncccc4-c4ccnc(N)n4)cc3)c3ccccc23)c1` [AMG 900, N-(4-((3-(2-amino-4-pyrimidinyl)-2-pyridinyl)oxy)phenyl)-4-(4-methyl-2-thienyl)-1-phthalazinamine], the EC50 [1] is reported as 1 nM, the “% TGI (tumor growth inhibition)” value ([2]; MES-SA Dx5, Uterine, oral BID, best of intermittent or continuous dose schedule) is reported as 73% and the “tumor growth vs vehicle control” value ([2]; MES-SA Dx5, 15 mg/kg BID 2 consecutive days per week and 3.0 mg/kg BID everyday, p<0.0001) is reported as “statistically significant tumor growth inhibition”. For the same compound, the “% TGI (tumor growth inhibition)” value [3] was 51%, the “% TGI (tumor growth inhibition)” value [4] was 66% and the EC50 [5] was 2 nM. For the same compound, the EC50 [6] was 2 nM, the EC50 [7] was 1 nM and the EC50 [8] was 2 nM. It also gave an EC50 [9] of 1 nM.
